These results are taken from patent US8703701B2 (Indiana University Research and Technology Corporation, priority 2009, dated 2014).

One assay deals with T1, GLP-1 receptor (Homo sapiens, UniProt P43220).
T1 construct: expressed in transfected cells; host or cells: HEK293
The assay can be described thus: cAMP induction, firefly luciferase reporter assay, GLP-1 receptor. The conditions noted are these: Table 3A; for Activity at GLP-1 Receptor % Relative Activity: compared to native GLP-1; for EC50: Activity at GLP-1 Receptor EC50 [pM]. The format is cell-based. Here is the method:
(§1) The ability of each peptide to induce cAMP was measured in a firefly luciferase-based reporter assay.
(§2) At the end of the incubation, 100 μL of LucLite luminescence substrate reagent (Perkin Elmer, Wellesley, Mass.) were added to each well. The plate was shaken briefly, incubated 10 min in the dark and light output was measured on MicroBeta-1450 liquid scintillation counter (Perkin-Elmer, Wellesley, Mass.).
On the technique in general: Reporter assays use an easily measured gene product as a stand-in for the process of interest.

A further assay deals with T2, glucagon receptor (Homo sapiens, UniProt P47871).
T2 construct: expressed in transfected cells; host or cells: HEK293
Description: cAMP induction, firefly luciferase reporter assay, glucagon receptor. The format is cell-based. Conditions: Table 3A; for Activity at Glucagon Receptor % Relative Activity: compared to native glucagon; for EC50: Activity at Glucagon Receptor EC50 [pM]. The method, then: as §1, §2

Starred links: 1 amine or outer side, 2 acyl side, 3 side chain; linkers in the order of their positions; H or OH if unused. Non-standard residues stand in square brackets, D forms with d. Residues, ends and D or L forms follow the SMILES beside them. Groups on a side chain read outwards from the residue. *: point of attachment. γGlu = O=C(O)[C@H](CCC(=O)[*:2])N[*:1]; Palmitoyl = CCCCCCCCCCCCCCCC(=O)*; Aib = CC(C)(N)C(=O)O

T2 sequence (P47871 26-477): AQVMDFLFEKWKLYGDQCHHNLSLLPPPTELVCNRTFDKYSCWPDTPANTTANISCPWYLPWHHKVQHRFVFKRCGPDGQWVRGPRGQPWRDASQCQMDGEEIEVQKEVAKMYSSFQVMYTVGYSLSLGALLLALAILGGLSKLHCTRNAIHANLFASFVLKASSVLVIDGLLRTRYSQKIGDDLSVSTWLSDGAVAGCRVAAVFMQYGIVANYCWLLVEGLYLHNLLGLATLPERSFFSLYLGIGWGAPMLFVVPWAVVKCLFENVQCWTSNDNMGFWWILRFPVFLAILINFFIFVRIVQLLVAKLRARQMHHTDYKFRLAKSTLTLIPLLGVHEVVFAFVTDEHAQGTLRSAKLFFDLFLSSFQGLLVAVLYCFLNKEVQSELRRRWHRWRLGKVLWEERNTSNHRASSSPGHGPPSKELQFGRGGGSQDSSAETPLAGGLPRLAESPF
T1 sequence (P43220 24-463): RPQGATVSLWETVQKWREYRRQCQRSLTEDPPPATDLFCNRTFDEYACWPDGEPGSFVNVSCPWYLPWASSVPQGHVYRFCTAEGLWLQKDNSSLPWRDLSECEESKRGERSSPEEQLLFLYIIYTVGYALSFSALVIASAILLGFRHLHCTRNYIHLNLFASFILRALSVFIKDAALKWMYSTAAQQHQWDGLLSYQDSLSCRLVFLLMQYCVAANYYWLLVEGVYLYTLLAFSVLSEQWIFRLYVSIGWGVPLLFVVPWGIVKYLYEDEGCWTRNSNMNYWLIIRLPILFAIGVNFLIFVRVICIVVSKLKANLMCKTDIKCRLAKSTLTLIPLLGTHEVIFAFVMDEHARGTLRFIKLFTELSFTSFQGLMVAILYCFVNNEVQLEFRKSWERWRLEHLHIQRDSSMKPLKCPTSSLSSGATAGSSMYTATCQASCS

Consider `CCCCCCCCCCCCCCCC(=O)N[C@@H](CCC(=O)NCCCC[C@H](NC(=O)[C@H](CC(=O)O)NC(=O)[C@H](CO)NC(=O)[C@@H](NC(=O)[C@H](Cc1ccccc1)NC(=O)[C@@H](NC(=O)CNC(=O)[C@H](CCC(N)=O)NC(=O)C(C)(C)NC(=O)[C@@H](N)Cc1c[nH]cn1)[C@@H](C)O)[C@@H](C)O)C(=O)N[C@@H](CO)C(=O)N[C@@H](CCCCN)C(=O)N[C@@H](Cc1ccc(O)cc1)C(=O)N[C@@H](CC(C)C)C(=O)N[C@@H](CC(=O)O)C(=O)NC(C)(C)C(=O)N[C@@H](CCCNC(=N)N)C(=O)N[C@@H](C)C(=O)N[C@@H](C)C(=O)N[C@@H](CCC(N)=O)C(=O)N[C@@H](CC(=O)O)C(=O)N[C@@H](Cc1ccccc1)C(=O)N[C@H](C(=O)N[C@@H](CCC(N)=O)C(=O)N[C@@H](Cc1c[nH]c2ccccc12)C(=O)N[C@@H](CC(C)C)C(=O)N[C@@H](CCSC)C(=O)N[C@@H](CC(=O)O)C(=O)N[C@H](C(N)=O)[C@@H](C)O)C(C)C)C(=O)O` [compound 43] (H-H[Aib]QGTFTSDK([γGlu-Palmitoyl])SKYLD[Aib]RAAQDFVQWLMDT-NH2; N-terminus assumed), for which the “Activity at GLP-1 Receptor % Relative Activity” value on GLP-1 receptor stood at 575%. In addition, the “Activity at Glucagon Receptor % Relative Activity” value at glucagon receptor worked out at 467%.
Regarding `CCCCCCCCCCCCCCCC(=O)N[C@@H](CCC(=O)N[C@@H](CCC(=O)NCCCC[C@H](NC(=O)[C@H](CC(=O)O)NC(=O)[C@H](CO)NC(=O)[C@@H](NC(=O)[C@H](Cc1ccccc1)NC(=O)[C@@H](NC(=O)CNC(=O)[C@H](CCC(N)=O)NC(=O)[C@@H](CO)NC(=O)[C@@H](N)Cc1c[nH]cn1)[C@@H](C)O)[C@@H](C)O)C(=O)N[C@@H](CO)C(=O)N[C@@H](CCCCN)C(=O)N[C@@H](Cc1ccc(O)cc1)C(=O)N[C@@H](CC(C)C)C(=O)N[C@@H](CC(=O)O)C(=O)NC(C)(C)C(=O)N[C@@H](CCCNC(=N)N)C(=O)N[C@@H](C)C(=O)N[C@@H](C)C(=O)N[C@@H](CCC(N)=O)C(=O)N[C@@H](CC(=O)O)C(=O)N[C@@H](Cc1ccccc1)C(=O)N[C@H](C(=O)N[C@@H](CCC(N)=O)C(=O)N[C@@H](Cc1c[nH]c2ccccc12)C(=O)N[C@@H](CC(C)C)C(=O)N[C@@H](CCSC)C(=O)N[C@@H](CC(=O)O)C(=O)N[C@H](C(N)=O)[C@@H](C)O)C(C)C)C(=O)O)C(=O)O` [compound 44] (H-H[dS]QGTFTSDK([γGlu-γGlu-Palmitoyl])SKYLD[Aib]RAAQDFVQWLMDT-NH2; N-terminus assumed), the “Activity at GLP-1 Receptor % Relative Activity” value on GLP-1 receptor amounted to 524%. The “Activity at Glucagon Receptor % Relative Activity” value at glucagon receptor is on record as 661%.
A word on the EC50: it is the concentration needed to bring the measured effect to its halfway point. As to `CCCCCCCCCCCCCCCC(=O)N[C@@H](CCC(=O)N[C@@H](CCC(=O)NCCCC[C@H](NC(=O)[C@H](CC(=O)O)NC(=O)[C@H](CO)NC(=O)[C@@H](NC(=O)[C@H](Cc1ccccc1)NC(=O)[C@@H](NC(=O)CNC(=O)[C@H](CCC(=O)O)NC(=O)C(C)(C)NC(=O)[C@@H](N)Cc1c[nH]cn1)[C@@H](C)O)[C@@H](C)O)C(=O)N[C@@H](CO)C(=O)N[C@@H](CCCCN)C(=O)N[C@@H](Cc1ccc(O)cc1)C(=O)N[C@@H](CC(C)C)C(=O)N[C@@H](CC(=O)O)C(=O)NC(C)(C)C(=O)N[C@@H](CCCNC(=N)N)C(=O)N[C@@H](C)C(=O)N[C@@H](C)C(=O)N[C@@H](CCC(N)=O)C(=O)N[C@@H](CC(=O)O)C(=O)N[C@@H](Cc1ccccc1)C(=O)N[C@H](C(=O)N[C@@H](CCC(N)=O)C(=O)N[C@@H](Cc1c[nH]c2ccccc12)C(=O)N[C@@H](CC(C)C)C(=O)N[C@@H](CCSC)C(=O)N[C@@H](CC(=O)O)C(=O)N[C@H](C(N)=O)[C@@H](C)O)C(C)C)C(=O)O)C(=O)O` [compound 45] (H-H[Aib]EGTFTSDK([γGlu-γGlu-Palmitoyl])SKYLD[Aib]RAAQDFVQWLMDT-NH2; N-terminus assumed), at GLP-1 receptor, the midpoint of the response, the EC50, lay at 3 pM and the “Activity at GLP-1 Receptor % Relative Activity” value came out at 759%. For the same compound, on glucagon receptor, the “Activity at Glucagon Receptor % Relative Activity” value is 75%.
As to `CCCCCCCCCCCCCCCC(=O)N[C@@H](CCC(=O)N[C@@H](CCC(=O)NCCCC[C@H](NC(=O)[C@H](CC(=O)O)NC(=O)[C@H](CO)NC(=O)[C@@H](NC(=O)[C@H](Cc1ccccc1)NC(=O)[C@@H](NC(=O)CNC(=O)[C@H](CCC(N)=O)NC(=O)C(C)(C)NC(=O)[C@@H](N)Cc1c[nH]cn1)[C@@H](C)O)[C@@H](C)CC)C(=O)N[C@@H](CO)C(=O)N[C@@H](CCCCN)C(=O)N[C@@H](Cc1ccc(O)cc1)C(=O)N[C@@H](CC(C)C)C(=O)N[C@@H](CC(=O)O)C(=O)NC(C)(C)C(=O)N[C@@H](CCCNC(=N)N)C(=O)N[C@@H](C)C(=O)N[C@@H](C)C(=O)N[C@@H](CCC(N)=O)C(=O)N[C@@H](CC(=O)O)C(=O)N[C@@H](Cc1ccccc1)C(=O)N[C@H](C(=O)N[C@@H](CCC(N)=O)C(=O)N[C@@H](Cc1c[nH]c2ccccc12)C(=O)N[C@@H](CC(C)C)C(=O)N[C@@H](CCSC)C(=O)N[C@@H](CC(=O)O)C(=O)N[C@H](C(=O)O)[C@@H](C)O)C(C)C)C(=O)O)C(=O)O` [compound 46], the “Activity at GLP-1 Receptor % Relative Activity” value at GLP-1 receptor stood at 4.9%. The “Activity at Glucagon Receptor % Relative Activity” value at glucagon receptor was 2800%.
`CCCCCCCCCCCCCCCC(=O)N[C@@H](CCC(=O)N[C@@H](CCC(=O)NCCCC[C@H](NC(=O)[C@H](CC(=O)O)NC(=O)[C@H](CO)NC(=O)[C@@H](NC(=O)[C@H](Cc1ccccc1)NC(=O)[C@@H](NC(=O)CNC(=O)[C@H](CCC(N)=O)NC(=O)C(C)(C)NC(=O)[C@@H](N)Cc1c[nH]cn1)[C@@H](C)O)[C@@H](C)O)C(=O)N[C@@H](CO)C(=O)N[C@@H](CCCCN)C(=O)N[C@@H](Cc1ccc(O)cc1)C(=O)N[C@@H](CC(C)C)C(=O)N[C@@H](CCC(=O)O)C(=O)NC(C)(C)C(=O)N[C@@H](CCCNC(=N)N)C(=O)N[C@@H](C)C(=O)N[C@@H](C)C(=O)N[C@@H](CCC(N)=O)C(=O)N[C@@H](CC(=O)O)C(=O)N[C@@H](Cc1ccccc1)C(=O)N[C@H](C(=O)N[C@@H](CCC(N)=O)C(=O)N[C@@H](Cc1c[nH]c2ccccc12)C(=O)N[C@@H](CC(C)C)C(=O)N[C@@H](CCSC)C(=O)N[C@@H](CC(=O)O)C(=O)N[C@H](C(N)=O)[C@@H](C)O)C(C)C)C(=O)O)C(=O)O` [compound 48] (H-H[Aib]QGTFTSDK([γGlu-γGlu-Palmitoyl])SKYLE[Aib]RAAQDFVQWLMDT-NH2; N-terminus assumed): on GLP-1 receptor, the EC50 came out at 6 pM and the “Activity at GLP-1 Receptor % Relative Activity” value was found to be 384%. For the same compound, on glucagon receptor, the response was half-maximal at 3 pM (EC50) and the “Activity at Glucagon Receptor % Relative Activity” value stood at 1194%.
Consider `CCCCCCCCCCCCCCCC(=O)N[C@@H](CCC(=O)N[C@@H](CCC(=O)NCCCC[C@H](NC(=O)[C@H](CC(=O)O)NC(=O)[C@H](CO)NC(=O)[C@@H](NC(=O)[C@H](Cc1ccccc1)NC(=O)[C@@H](NC(=O)CNC(=O)[C@H](CCC(N)=O)NC(=O)C(C)(C)NC(=O)[C@@H](N)Cc1c[nH]cn1)[C@@H](C)O)[C@@H](C)O)C(=O)N[C@@H](CO)C(=O)N[C@@H](CCCCN)C(=O)N[C@@H](Cc1ccc(O)cc1)C(=O)N[C@@H](CC(C)C)C(=O)N[C@@H](CC(=O)O)C(=O)NC(C)(C)C(=O)N[C@@H](CCCNC(=N)N)C(=O)N[C@@H](C)C(=O)N[C@@H](C)C(=O)N[C@@H](CCC(N)=O)C(=O)N[C@@H](CC(=O)O)C(=O)N[C@@H](Cc1ccccc1)C(=O)N[C@H](C(=O)N[C@@H](CCC(N)=O)C(=O)N[C@@H](Cc1c[nH]c2ccccc12)C(=O)N[C@@H](CC(C)C)C(=O)N[C@@H](CC(C)C)C(=O)N[C@@H](CC(=O)O)C(=O)N[C@H](C(N)=O)[C@@H](C)O)C(C)C)C(=O)O)C(=O)O` [compound 49], for which, on GLP-1 receptor, the EC50 amounted to 6 pM and the “Activity at GLP-1 Receptor % Relative Activity” value is on record as 375%. In addition, the “Activity at Glucagon Receptor % Relative Activity” value on glucagon receptor came to 511%.
`CCCCCCCCCCCCCCCC(=O)N[C@@H](CCC(=O)N[C@@H](CCC(=O)NCCCC[C@H](NC(=O)[C@H](CC(=O)O)NC(=O)[C@H](CO)NC(=O)[C@@H](NC(=O)[C@H](Cc1ccccc1)NC(=O)[C@@H](NC(=O)CNC(=O)[C@H](CCC(N)=O)NC(=O)C(C)(C)NC(=O)[C@@H](N)Cc1c[nH]cn1)[C@@H](C)O)[C@@H](C)O)C(=O)N[C@@H](CO)C(=O)N[C@@H](CCCCN)C(=O)N[C@@H](Cc1ccc(O)cc1)C(=O)N[C@@H](CC(C)C)C(=O)N[C@@H](CC(=O)O)C(=O)N[C@@H](CCC(=O)O)C(=O)N[C@@H](CCCNC(=N)N)C(=O)N[C@@H](C)C(=O)N[C@@H](C)C(=O)N[C@@H](CCC(N)=O)C(=O)N[C@@H](CC(=O)O)C(=O)N[C@@H](Cc1ccccc1)C(=O)N[C@H](C(=O)N[C@@H](CCC(N)=O)C(=O)N[C@@H](Cc1c[nH]c2ccccc12)C(=O)N[C@@H](CC(C)C)C(=O)N[C@@H](CCSC)C(=O)N[C@@H](CC(=O)O)C(=O)N[C@H](C(N)=O)[C@@H](C)O)C(C)C)C(=O)O)C(=O)O` [compound 50]: on GLP-1 receptor, it took 5 pM to reach a half-maximal effect (EC50) and the “Activity at GLP-1 Receptor % Relative Activity” value worked out at 500%. Further, at glucagon receptor, the response was half-maximal at 2 pM (EC50) and the “Activity at Glucagon Receptor % Relative Activity” value stood at 1000%.
